Counter-ions that a name gives are not always drawn.
Columns and labels:
[1] = test system: TMD8 (ABC-DLBCL) cells; test: Antitumor activity study of compound A in combination with GA101/RTX in TMD8 xenograft model (Example 2); format: in vivo, SCID mice; settings: for Tumor growth inhibition (TGI): vs vehicle group, GA101 3 mg/kg i.v. Q7Dx4, RTX 3 mg/kg i.v. Q7Dx4, compound A 10 mg/kg p.o. twice daily
Protocol: Mice were xenografted on DO. […] Mice received one IV injection of Rituximab (at 3 mg/kg) or one IV injection of GA101 (at 3 mg/kg) once a week (D14 (Day 0), 21 (Day 7), 28 (Day 14) and 35 (Day 21): Q7D×4). Tumor volumes were monitored and recorded twice a week.
Compound A was per os (PO) administered to mice twice daily by oral gavage via a disposable oral feeding needle (Fuchigami Kikai Co.) at 10 ml/kg. GA101/Rituximab were intravenously (IV) injected at 10 ml/kg in the caudal vein of mice. For all treatments, the administration volumes were adapted according to the closest measure of individual body weight for each mouse. The compound A b.i.d. group and the vehicle group received compound A and 0.5% MC, respectively, in the morning and afternoon at an interval of 8 h or more.
(§1) Female C.B-17/lcr-SCID/SCIDJcl mice (Clea Japan Inc., age at initiation of experiment: 6 weeks; hereinafter referred to as “Scid mice”) were used. The mice were kept in metal mouse cages, 3 to 5 to a cage, and underwent about 1 week acclimation period prior to being subjected to the experiment. While at our facility, the animals were allowed solid feed, CRF-1 (Oriental Yeast Co., Ltd.) and tap water (from an automatic dispenser) ad libitum. Excrement was processed with an automated cleaning system. The general condition of the animals was observed upon receipt and at the completion of acclimation. Animals having no problems with general condition were used in the experiment.
(§2) TMD8 was established from cells of a patient with diffuse large B-cell lymphoma (Tohda S et al., Leuk Res., 2006, 30: 1385-90). RPMI Medium 1640 (Invitrogen Corporation, hereinafter referred to as “RPMI”) containing 10 vol % inactivated FBS and 1 vol % Penicillin-Streptomycin liquid (Invitrogen Corporation) was prepared and used as medium. The medium was stored at 5° C. (allowable range: 1° C. to 9° C.). The cell suspension of 4×106 to 2.0×10^7 cells per dish was inoculated in a 150 mm dish containing the medium. The plates were incubated at 37° C., 5% CO2, 95% air.
(§3) At Day 0, the pellet was suspended in RPMI previously cooled on ice to obtain a 2×10^8 cells/mL cell suspension. The RPMI cell suspension and equal volume of BD Matrigel GFR (BD Biosciences) were combined to prepare a 1×10^8 cells/mL cell suspension. This was used as the cell suspension for implantation. Then, 0.1 mL of cell suspension was subcutaneously injected in the right flank of the mice under pentobarbital anesthesia, using a 25-gauge needle (Terumo Corporation).
(§4) The long axis and short axis of the tumors were measured with electronic calipers (Mitutoyo Corporation) every 2 or 4 days from TMD8 implantation to the final assessment day.
(§5) The primary endpoint was tumor volume on the final assessment day. In addition, the tumor growth inhibition rate (TGI, %) in the treatment groups versus the vehicle group was calculated. Temporal change in tumor volume and body weight from Day 0 were used as secondary endpoints. Tumor volume was calculated with the following formula. Tumor volume=Long axis of tumor×(short axis of tumor)2×0.5
The experiment in Example 2 was performed according to the method described in Example 1 except for the following “substance vehicle” and “treatment schedule”.
(§6) Compound A was weighed out and suspended in a 0.5 w/v % methyl cellulose 400 cP solution (Wako Pure Chemical Industries, Ltd., hereinafter referred to as “0.5% MC”), using a mortar and pestle, to obtain a 1 mg/mL (10 mg/kg) suspension. The suspension was used within 7 days of preparation.
The stock solutions of both GA101 (25 mg/mL) and Rituximab (10 mg/mL) were kept at 4° C. Before administration to mice, the stock solutions were diluted in NaCl 0.9% at 0.3 mg/mL (3 mg/kg) for this study.
When the mean tumor volume reached 400 to 450 mm^3 mice were randomized in groups of 6 according to their individual tumor volumes and treatment was initiated.

[2] = Stability and uniformity of compound A suspension in 0.5% methyl cellulose; format: physicochemical; settings: 1 mg/mL suspension in 0.5% MC; 7 days under refrigeration, protected from light, and a further 24 hours at ambient temperature exposed to indoor lighting
Protocol: Compound A was weighed out and suspended in a 0.5 w/v % methyl cellulose 400 cP solution (Wako Pure Chemical Industries, Ltd., hereinafter referred to as “0.5% MC”), using a mortar and pestle, to obtain a 1 mg/mL suspension. The suspension was used within 7 days of preparation.
as §6

[3] = test system: TMD8 (ABC-DLBCL) cells; test: Antitumor activity study of compound A or compound B (in diet) in combination with RTX in TMD8 xenograft model (Example 3); format: in vivo, SCID mice; settings: for Tumor growth inhibition (TGI): vs vehicle group, RTX 3 mg/kg i.v. Q7Dx3, compound A 0.0037% in diet (6 mg/kg/day), compound B 0.012% in diet (20 mg/kg/day)
Protocol: Mice were xenografted on DO. […] Mice received one IV injection of Rituximab (at 3 mg/kg) once a week (D14 (Day 0), 21 (Day 7) and 28 (Day 14): Q7D×3). Tumor volumes were monitored and recorded at Day 3, Day 7, Day 11, Day 14, Day 18 and Day 21.
as §1, §2, §3, §4, §5
The experiment in Example 3 was performed according to the method described in Example 1 except for the following “substance vehicle”, “route of drug administration” and “treatment schedule”
The comparative substance, ibrutinib (hereinafter referred to as “compound B”), was stored in sealed containers at ambient temperature, protected from light.
The dose of compound A or compound B corresponds to a daily intake of 6 or 20 mg/kg of body weight.
Treatment groups: Mice fed the same diet containing compound A or compound B after randomization. Rituximab was administered intravenously at a 3 mg/kg once weekly.
Tumor diameter was measured and tumor volume was calculated every 3 or 4 days after group assignment.

[4] = test system: NK cell-mediated cytotoxicity; settings: Kohrt H E et al., Blood 123, 1957-1960, 2014; cited from earlier work
[5] = test system: TMD8 (ABC-DLBCL) cells; test: Antitumor efficacy study of compound A in combination with GA101 in SCID mice subcutaneously xenografted with TMD8 cells (Example 1); format: in vivo; settings: GA101 1 and 3 mg/kg i.v. Q7Dx4
Protocol: Mice were xenografted on DO. Mice received one PO administration of vehicle and compound A at 10 mg/kg twice every day (Q0.5D×24) alone or in combination with one IV injection of GA101 at 1 and 3 mg/kg once a week (Q7D×4). Mice received one IV injection of Rituximab (at 3 mg/kg) or one IV injection of GA101 (at 1 and 3 mg/kg) once a week (D14 (Day 0), 21 (Day 7), 28 (Day 14) and D35 (Day 21): Q7D×4). Tumor volumes were monitored and recorded twice a week.
Antitumor efficacy study of BTK inhibitor in combination with anti-CD20 Abs in SCID mice subcutaneously xenografted with TMD8 (ABC-DLBCL) cells
The test substance, 6-amino-9-[(3R)-1-(2-butynoyl)-3-pyrrolidinyl]-7-(4-phenoxyphenyl)-7,9-dihydro-8H-purin-8-one hydrochloride (hereinafter referred to as “compound A”), was stored in sealed containers at ambient temperature, protected from light.
Compound A was weighed out and suspended in a 0.5 w/v % methyl cellulose 400 cP solution (Wako Pure Chemical Industries, Ltd., hereinafter referred to as “0.5% MC”), using a mortar and pestle, to obtain a 1 mg/mL suspension. The suspension was used within 7 days of preparation. […]
TMD8 was established from cells of a patient with diffuse large B-cell lymphoma (Tohda S et al., Leuk Res., 2006, 30: 1385-90). […] Cells were counted in a hemocytometer and their viability was at least 90% the day of cells injection. […]

| Compound | Tumor growth inhibition (TGI) ([1]; day 0) | Tumor growth inhibition (TGI) ([1]; day 4) | Tumor growth inhibition (TGI) ([1]; day 7) | Tumor growth inhibition (TGI) ([1]; day 11) | Tumor growth inhibition (TGI) ([1]; day 14) | Tumor growth inhibition (TGI) ([1]; day 18) | Tumor growth inhibition (TGI) ([1]; day 21) | Statistical significance observed after Day ([1]; monotherapy, GA101 or RTX 3 mg/kg i.v., compound A 10 mg/kg p.o.) | Stability and uniformity of suspension [2] | Antitumor activity compared with the compound B arm ([3]; compound A 0.0037% vs compound B 0.012% in diet, alone or with RTX 3 mg/kg) | Tumor growth inhibition (TGI) ([3]; day 0) | Tumor growth inhibition (TGI) ([3]; day 3) | Tumor growth inhibition (TGI) ([3]; day 7) | Tumor growth inhibition (TGI) ([3]; day 11) | Tumor growth inhibition (TGI) ([3]; day 14) | Tumor growth inhibition (TGI) ([3]; day 18) | Tumor growth inhibition (TGI) ([3]; day 21) | Effect on RTX-dependent NK cell-mediated cytotoxicity [4] | Statistical significance observed after Day ([3]; monotherapy, RTX 3 mg/kg i.v., compound A 0.0037%, compound B 0.012% in diet) | Antitumoral effect (tumour volume curves, FIGS. 1A-1B) [5] |
| --- | --- | --- | --- | --- | --- | --- | --- | --- | --- | --- | --- | --- | --- | --- | --- | --- | --- | --- | --- | --- |
| CC#CC(=O)N1CC[C@@H](n2c(=O)n(-c3ccc(Oc4ccccc4)cc3)c3c(N)ncnc32)C1 [compound A, 6-amino-9-[(3R)-1-(2-butynoyl)-3-pyrrolidinyl]-7-(4-phenoxyphenyl)-7,9-dihydro-8H-purin-8-one hydrochloride] | 0.0% | 13.7% | 17.6% | 34.0% | 45.8% | 46.4% | 62.6% | > 11 days | stable and uniform | comparable to compound B (0.012%) | 0.0% | 12.7% | 42.8% | 47.55% | 51.1% | 61.0% | 56.1% |  |  |  |
| C=CC(=O)N1CCC[C@@H](n2nc(-c3ccc(Oc4ccccc4)cc3)c3c(N)ncnc32)C1 [compound B, ibrutinib] |  |  |  |  |  |  |  |  |  |  | 0.4% | 3.2% | 19.1% | 34.91% | 40.2% | 39.2% | 47.1% | antagonizes RTX-dependent NK cell-mediated cytotoxicity | > 11 days |  |
| GA101: obinutuzumab, afucosylated glyco-engineered humanized B-Ly1 type II anti-CD20 antibody | 1.7% | 30.9% | 45.0% | 53.3% | 63.3% | 72.2% | 77.9% |  |  |  |  |  |  |  |  |  |  |  |  | showed an antitumoral effect |
